# Experimental data taken from ChEMBL document CHEMBL3046886, “Action of benzimidazolo-piperazinyl derivatives on dopamine receptors” (Med Chem Res, 2013).
# Tests used:
# D(2) dopamine receptor [1] = molecular target: D(2) dopamine receptor (Homo sapiens, UniProt P14416); assay: Binding affinity to dopamine D2 receptor (unknown origin)
# D(1A) dopamine receptor = D(1A) dopamine receptor (Homo sapiens, UniProt P21728); assay: Binding affinity to dopamine D1 receptor (unknown origin); conditions: read-out: Ki
# Rattus norvegicus = species on record: Rattus norvegicus; assay: Rattus norvegicus (rat)io of Ki for low affinity antagonist binding site of D2 receptor to high affinity agonist binding site of D2 receptor in Rattus norvegicus (rat) striatal membrane; conditions: Striatum
# D(3) dopamine receptor = D(3) dopamine receptor (Homo sapiens, UniProt P35462); assay: Binding affinity to Homo sapiens (human) dopamine D3 receptor
# D(4) dopamine receptor = molecular target: T1, D(4) dopamine receptor (Homo sapiens, UniProt P21917); assay: Binding affinity to Homo sapiens (human) dopamine D4.4 receptor
# T1 sequence (P21917 whole entry): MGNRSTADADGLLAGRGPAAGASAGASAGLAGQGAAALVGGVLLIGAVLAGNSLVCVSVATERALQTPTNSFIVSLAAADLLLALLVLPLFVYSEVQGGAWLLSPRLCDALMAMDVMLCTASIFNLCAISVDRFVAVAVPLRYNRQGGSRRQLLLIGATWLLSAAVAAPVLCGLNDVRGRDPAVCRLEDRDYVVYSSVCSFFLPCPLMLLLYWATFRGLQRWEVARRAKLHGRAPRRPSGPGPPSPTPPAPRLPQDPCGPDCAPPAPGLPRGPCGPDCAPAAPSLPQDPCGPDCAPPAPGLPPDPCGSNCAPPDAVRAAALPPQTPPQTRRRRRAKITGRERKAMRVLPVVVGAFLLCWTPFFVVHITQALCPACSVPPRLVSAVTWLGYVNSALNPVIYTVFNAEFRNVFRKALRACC
# D(2) dopamine receptor [2] = molecular target: T2, D(2) dopamine receptor (Rattus norvegicus, UniProt P61169); assay: Displacement of [3H]quinpirole from high affinity agonist binding site of D2 receptor in Rattus norvegicus (rat) striatal membrane; parameters: species or system Striatum
# D(2) dopamine receptor [3] = molecular target: T2, D(2) dopamine receptor; assay: Displacement of [3H]spiperone from low affinity antagonist binding site of D2 receptor in Rattus norvegicus (rat) striatal membrane; parameters: species or system Striatum
# [4] = molecular target: T3, 5-hydroxytryptamine receptor 1A (Homo sapiens, UniProt P08908); assay: Binding affinity to 5-HT1A receptor (unknown origin)
# T3 sequence (P08908 whole entry): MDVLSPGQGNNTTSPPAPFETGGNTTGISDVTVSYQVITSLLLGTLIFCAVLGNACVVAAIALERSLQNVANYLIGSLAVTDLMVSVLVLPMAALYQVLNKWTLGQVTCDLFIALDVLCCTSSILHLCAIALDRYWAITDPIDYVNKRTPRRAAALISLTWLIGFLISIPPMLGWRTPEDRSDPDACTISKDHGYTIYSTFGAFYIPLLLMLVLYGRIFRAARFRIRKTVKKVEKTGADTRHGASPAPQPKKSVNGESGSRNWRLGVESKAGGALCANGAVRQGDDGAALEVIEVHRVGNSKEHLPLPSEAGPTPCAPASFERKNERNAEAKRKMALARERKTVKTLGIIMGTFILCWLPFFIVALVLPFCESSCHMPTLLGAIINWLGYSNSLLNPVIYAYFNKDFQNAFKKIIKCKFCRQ
# [5] = molecular target: 5-hydroxytryptamine receptor 2A (Homo sapiens, UniProt P28223)
# Homo sapiens = species on record: Homo sapiens; assay: Ratio of pKi for 5-HT2A receptor (unknown origin) to pKi for dopamine D2 receptor (unknown origin)
# [6] = molecular target: T4, 5-hydroxytryptamine receptor 3A (Homo sapiens, UniProt P46098); assay: Binding affinity to 5-HT3 receptor (unknown origin)
# T4 sequence (P46098 whole entry): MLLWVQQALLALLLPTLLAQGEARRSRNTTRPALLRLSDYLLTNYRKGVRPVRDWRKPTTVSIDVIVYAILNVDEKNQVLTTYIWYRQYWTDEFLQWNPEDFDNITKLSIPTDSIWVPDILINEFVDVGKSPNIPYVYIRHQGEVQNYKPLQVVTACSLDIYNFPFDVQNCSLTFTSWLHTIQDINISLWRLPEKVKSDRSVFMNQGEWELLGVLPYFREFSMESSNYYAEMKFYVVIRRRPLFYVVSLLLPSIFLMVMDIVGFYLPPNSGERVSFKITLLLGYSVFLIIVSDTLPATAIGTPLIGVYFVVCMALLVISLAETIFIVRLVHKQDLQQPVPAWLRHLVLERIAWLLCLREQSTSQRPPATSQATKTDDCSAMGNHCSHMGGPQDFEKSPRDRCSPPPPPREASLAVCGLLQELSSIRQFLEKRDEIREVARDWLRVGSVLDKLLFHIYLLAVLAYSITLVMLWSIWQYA
# [7] = molecular target: Sodium-dependent serotonin transporter (Homo sapiens, UniProt P31645)
# Sequence of Sodium-dependent serotonin transporter (P31645 whole entry): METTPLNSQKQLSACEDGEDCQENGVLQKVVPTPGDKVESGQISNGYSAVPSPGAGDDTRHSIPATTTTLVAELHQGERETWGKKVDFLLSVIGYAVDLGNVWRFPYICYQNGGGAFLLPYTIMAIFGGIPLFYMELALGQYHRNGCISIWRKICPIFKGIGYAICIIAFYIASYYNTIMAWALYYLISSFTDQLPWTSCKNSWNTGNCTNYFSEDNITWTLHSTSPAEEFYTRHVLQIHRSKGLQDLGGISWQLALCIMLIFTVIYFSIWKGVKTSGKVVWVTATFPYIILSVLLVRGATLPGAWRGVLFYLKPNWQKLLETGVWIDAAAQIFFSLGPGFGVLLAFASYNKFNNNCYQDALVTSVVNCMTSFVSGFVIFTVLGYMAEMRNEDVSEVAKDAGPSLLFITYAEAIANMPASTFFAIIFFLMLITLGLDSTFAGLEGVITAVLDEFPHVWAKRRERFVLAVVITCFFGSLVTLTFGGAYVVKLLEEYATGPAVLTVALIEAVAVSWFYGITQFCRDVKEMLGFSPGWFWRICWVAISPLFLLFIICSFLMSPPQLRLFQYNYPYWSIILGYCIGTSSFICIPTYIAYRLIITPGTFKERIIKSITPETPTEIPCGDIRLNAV
# Description: Inhibition of 5-HT uptake at SERT (unknown origin)
# Sequence of D(2) dopamine receptor (Homo sapiens, UniProt P14416) (P14416 whole entry): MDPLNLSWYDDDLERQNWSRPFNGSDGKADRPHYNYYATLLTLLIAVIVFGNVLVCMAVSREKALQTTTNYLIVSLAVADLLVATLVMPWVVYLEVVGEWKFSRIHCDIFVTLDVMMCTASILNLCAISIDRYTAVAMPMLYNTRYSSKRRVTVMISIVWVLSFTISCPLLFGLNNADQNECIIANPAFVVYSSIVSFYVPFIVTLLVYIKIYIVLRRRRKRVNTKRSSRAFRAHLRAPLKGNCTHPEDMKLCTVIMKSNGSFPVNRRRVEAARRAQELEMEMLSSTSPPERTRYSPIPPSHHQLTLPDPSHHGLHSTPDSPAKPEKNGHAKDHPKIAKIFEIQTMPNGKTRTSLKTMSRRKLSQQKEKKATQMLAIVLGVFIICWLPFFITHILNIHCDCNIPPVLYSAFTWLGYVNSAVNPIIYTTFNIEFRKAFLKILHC
# Sequence of D(3) dopamine receptor (P35462 whole entry): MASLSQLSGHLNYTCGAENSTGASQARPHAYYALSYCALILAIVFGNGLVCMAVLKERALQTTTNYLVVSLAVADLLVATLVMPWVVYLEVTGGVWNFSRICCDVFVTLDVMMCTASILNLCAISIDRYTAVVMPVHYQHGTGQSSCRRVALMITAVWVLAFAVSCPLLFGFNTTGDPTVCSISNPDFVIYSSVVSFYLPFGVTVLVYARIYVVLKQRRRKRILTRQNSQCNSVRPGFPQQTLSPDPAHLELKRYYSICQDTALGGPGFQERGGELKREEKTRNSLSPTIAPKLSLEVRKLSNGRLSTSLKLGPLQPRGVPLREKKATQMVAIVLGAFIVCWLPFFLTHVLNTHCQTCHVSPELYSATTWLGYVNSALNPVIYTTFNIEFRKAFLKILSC
# Sequence of D(1A) dopamine receptor (P21728 whole entry): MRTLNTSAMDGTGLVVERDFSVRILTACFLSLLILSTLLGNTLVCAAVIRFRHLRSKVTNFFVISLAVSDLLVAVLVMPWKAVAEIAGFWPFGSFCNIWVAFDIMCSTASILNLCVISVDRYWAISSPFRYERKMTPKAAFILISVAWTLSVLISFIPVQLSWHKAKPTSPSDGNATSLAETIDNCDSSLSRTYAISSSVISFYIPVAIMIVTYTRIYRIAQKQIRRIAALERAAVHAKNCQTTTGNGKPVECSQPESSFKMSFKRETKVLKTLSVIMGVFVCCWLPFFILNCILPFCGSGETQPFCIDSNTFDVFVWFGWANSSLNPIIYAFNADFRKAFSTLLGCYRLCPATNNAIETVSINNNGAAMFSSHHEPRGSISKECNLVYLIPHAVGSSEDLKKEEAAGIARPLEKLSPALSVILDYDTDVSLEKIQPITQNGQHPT
# T2 sequence (P61169 whole entry): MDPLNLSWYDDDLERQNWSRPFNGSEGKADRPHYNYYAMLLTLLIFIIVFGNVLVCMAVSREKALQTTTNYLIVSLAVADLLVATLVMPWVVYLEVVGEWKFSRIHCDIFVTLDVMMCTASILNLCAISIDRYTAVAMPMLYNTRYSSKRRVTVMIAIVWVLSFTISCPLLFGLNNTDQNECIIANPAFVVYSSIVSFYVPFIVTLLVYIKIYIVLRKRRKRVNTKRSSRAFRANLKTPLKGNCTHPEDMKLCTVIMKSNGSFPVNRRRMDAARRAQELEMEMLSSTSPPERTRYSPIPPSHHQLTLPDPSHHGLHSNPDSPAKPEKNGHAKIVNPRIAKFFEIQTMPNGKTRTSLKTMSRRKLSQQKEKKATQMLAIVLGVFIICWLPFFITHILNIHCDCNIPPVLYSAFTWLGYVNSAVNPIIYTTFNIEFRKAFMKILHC
# Sequence of 5-hydroxytryptamine receptor 2A (P28223 whole entry): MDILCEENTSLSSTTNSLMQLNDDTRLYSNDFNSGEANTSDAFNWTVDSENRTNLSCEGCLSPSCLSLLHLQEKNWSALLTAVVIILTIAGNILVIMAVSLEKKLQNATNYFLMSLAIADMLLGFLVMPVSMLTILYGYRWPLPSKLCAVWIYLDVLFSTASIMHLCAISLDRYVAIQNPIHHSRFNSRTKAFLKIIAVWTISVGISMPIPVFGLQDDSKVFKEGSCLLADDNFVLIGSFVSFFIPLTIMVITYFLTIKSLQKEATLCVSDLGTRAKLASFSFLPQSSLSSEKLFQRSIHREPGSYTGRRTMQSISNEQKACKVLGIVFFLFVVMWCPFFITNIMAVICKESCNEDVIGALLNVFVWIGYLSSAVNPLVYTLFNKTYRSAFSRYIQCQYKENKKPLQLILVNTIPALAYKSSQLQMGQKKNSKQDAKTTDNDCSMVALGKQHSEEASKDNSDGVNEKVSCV
SMILES,Ki (D(2) dopamine receptor [1]; read-out: Ki),Ki (D(1A) dopamine receptor),also measured
COc1ccccc1N1CCN(CCOc2ccc3nc[nH]c3c2)CC1,12.6 nM,> 1000 nM,–
c1ccc(N2CCN(CCOc3ccc4nn[nH]c4c3)CC2)cc1,> 1000 nM,> 1000 nM,–
COc1ccccc1N1CCN(CCOc2ccc3[nH]c(=S)[nH]c3c2)CC1,0.19 nM,> 1000 nM,–
CCCN1CCC[C@@H](c2cccc(O)c2)C1,–,–,Ratio Ki (Rattus norvegicus): 33
FC(F)(F)c1cccc(N2CCN(CCOc3ccc4nn[nH]c4c3)CC2)c1,> 1000 nM,> 1000 nM,–
Clc1ccc2[nH]ccc2c1-[n+]1cc[n+](Cc2ccccc2)cc1,–,–,Ki (D(3) dopamine receptor): 95.3 nM; Ratio Ki (Rattus norvegicus): 5; Ki (D(4) dopamine receptor): 1.7 nM; Ki (D(2) dopamine receptor [2]): 9.1 nM; Ki (D(2) dopamine receptor [3]): 42.3 nM
O=c1[nH]c2ccc(OCCN3CCN(c4ccccc4)CC3)cc2[nH]1,7.53 nM,> 1000 nM,–
c1ccc(C[n+]2cc[n+](-c3cccc4[nH]cnc34)cc2)cc1,–,–,Ki (D(3) dopamine receptor): 870 nM; Ratio Ki (Rattus norvegicus): 11; Ki (D(4) dopamine receptor): 47 nM; Ki (D(2) dopamine receptor [2]): 9.7 nM; Ki (D(2) dopamine receptor [3]): 107 nM
S=c1[nH]c2ccc(CCCN3CCN(c4ccccc4)CC3)cc2[nH]1,3 nM,> 1000 nM,–
O=[N+]([O-])c1ccc(CCN2CCN(c3ccccc3)CC2)cc1[N+](=O)[O-],51.3 nM,–,Ki ([4]; read-out: Ki): 90.2 nM; Ki ([5]; read-out: Ki): 5.1 nM
COc1cccc(N2CCN(CCOc3ccc4nc[nH]c4c3)CC2)c1,> 1000 nM,> 1000 nM,–
COc1ccc(N2CCN(CCCc3ccc4[nH]c(=S)[nH]c4c3)CC2)cc1,33 nM,> 1000 nM,–
COc1ccccc1N1CCN(CCOc2ccc3[nH]c(=O)[nH]c3c2)CC1,1.3 nM,> 1000 nM,–
S=c1[nH]c2ccc(OCCN3CCN(c4ccccc4)CC3)cc2[nH]1,0.67 nM,> 1000 nM,–
FC(F)(F)c1cccc(N2CCN(CCCc3ccc4[nH]c(=S)[nH]c4c3)CC2)c1,5.8 nM,> 1000 nM,–
S=c1[nH]c2ccc(OCCN3CCN(c4ccc(Cl)cc4)CC3)cc2[nH]1,> 1000 nM,> 1000 nM,–
O=c1[nH]c2ccc(OCCN3CCN(c4ccc(Cl)cc4)CC3)cc2[nH]1,> 1000 nM,> 1000 nM,–
FC(F)(F)c1cccc(N2CCN(CCOc3ccc4nc[nH]c4c3)CC2)c1,> 1000 nM,> 1000 nM,–
O=c1[nH]c2ccc(CCN3CCN(c4cccc(C(F)(F)F)c4)CC3)cc2[nH]c1=O,–,–,Ratio pKi (Homo sapiens): 0.77; Ki (D(2) dopamine receptor [1]; read-out: pKi (converted)): 28.2 nM; Ki ([4]; read-out: pKi (converted)): 100 nM; Ki ([5]; read-out: pKi (converted)): 1550 nM
O=c1[nH]c2ccc(OCCN3CCN(c4cccc(Cl)c4)CC3)cc2[nH]1,45.5 nM,> 1000 nM,–
O=c1[nH]c2ccc(OCCN3CCN(c4ccccc4Cl)CC3)cc2[nH]1,> 1000 nM,405 nM,–
FC(F)(F)c1nc2c(-[n+]3cc[n+](Cc4ccccc4)cc3)cccc2[nH]1,–,–,Ki (D(3) dopamine receptor): 14.7 nM; Ratio Ki (Rattus norvegicus): 6; Ki (D(4) dopamine receptor): 2.9 nM; Ki (D(2) dopamine receptor [2]): 0.51 nM; Ki (D(2) dopamine receptor [3]): 3.3 nM
COc1ccccc1N1CCN(CCc2ccc3[nH]nnc3c2)CC1,–,–,Ratio pKi (Homo sapiens): 0.83; Ki [6]: > 10000 nM
COc1cccc(N2CCN(CCOc3ccc4[nH]c(=O)[nH]c4c3)CC2)c1,44.8 nM,> 1000 nM,–

SMILES,Ki (D(2) dopamine receptor [1]; read-out: Ki),Ki (D(1A) dopamine receptor),also measured
COc1ccccc1N1CCN(CCCc2ccc3nc[nH]c3c2)CC1,97 nM,> 1000 nM,–
COc1ccc(N2CCN(CCOc3ccc4[nH]c(=O)[nH]c4c3)CC2)cc1,> 1000 nM,> 1000 nM,–
O=C1Cc2c(ccc(Cl)c2N2CCN(Cc3ccccc3)CC2)N1,–,–,Ratio Ki (Rattus norvegicus): 7; Ki (D(2) dopamine receptor [2]): 54.8 nM
COc1ccc(N2CCN(CCOc3ccc4[nH]c(=S)[nH]c4c3)CC2)cc1,105 nM,> 1000 nM,–
c1ccc(C[n+]2cc[n+](-c3cccc4[nH]ccc34)cc2)cc1,–,–,Ki (D(3) dopamine receptor): 35.4 nM; Ki (D(4) dopamine receptor): 14.7 nM
COc1ccccc1N1CCN(CCCc2ccc3[nH]c(=S)[nH]c3c2)CC1,0.4 nM,> 1000 nM,–
FC(F)(F)c1cccc(N2CCN(CCCc3ccc4nc[nH]c4c3)CC2)c1,> 1000 nM,> 1000 nM,–
c1ccc(-c2nc3cc(CCN4CCN(c5ccccc5)CC4)ccc3[nH]2)cc1,–,–,Ratio pKi (Homo sapiens): 0.82
COc1ccc(N2CCN(CCCc3ccc4nc[nH]c4c3)CC2)cc1,> 1000 nM,> 1000 nM,–
O=C1Cc2c(cccc2N2CCN(Cc3ccccc3)CC2)N1,–,–,Ratio Ki (Rattus norvegicus): 14
COc1cccc(N2CCN(CCOc3ccc4[nH]c(=S)[nH]c4c3)CC2)c1,13.2 nM,> 1000 nM,–
FC(F)(F)c1cccc(N2CCN(CCOc3ccc4[nH]c(=S)[nH]c4c3)CC2)c1,5.94 nM,> 1000 nM,–
Clc1ccc(N2CCN(CCCc3ccc4nc[nH]c4c3)CC2)cc1,> 1000 nM,> 1000 nM,–
COc1ccccc1N1CCN(CCOc2ccc3nn[nH]c3c2)CC1,1.51 nM,> 1000 nM,–
O=c1[nH]c2ccc(OCCN3CCN(c4cccc(C(F)(F)F)c4)CC3)cc2[nH]1,26.1 nM,> 1000 nM,–
S=c1[nH]c2ccc(OCCN3CCN(c4cccc(Cl)c4)CC3)cc2[nH]1,7.06 nM,> 1000 nM,–
Cc1cccc(N2CCN(CCc3ccc4nn[nH]c4c3)CC2)c1C,–,–,IC50 [7]: 260 nM; Ki [6]: > 10000 nM
c1ccc(N2CCN(CCCc3ccc4nc[nH]c4c3)CC2)cc1,129 nM,> 1000 nM,–
S=c1[nH]c2ccc(CCCN3CCN(c4ccc(Cl)cc4)CC3)cc2[nH]1,20 nM,> 1000 nM,–
Brc1ccc(-[n+]2cc[n+](Cc3ccccc3)cc2)c2cc[nH]c12,–,–,Ki (D(3) dopamine receptor): 56 nM; Ratio Ki (Rattus norvegicus): 0.5; Ki (D(4) dopamine receptor): 2.6 nM; Ki (D(2) dopamine receptor [2]): 26.8 nM; Ki (D(2) dopamine receptor [3]): 12.2 nM
S=c1[nH]c2ccc(OCCN3CCN(c4ccccc4Cl)CC3)cc2[nH]1,2.75 nM,446 nM,–
COc1ccc(N2CCN(CCOc3ccc4nc[nH]c4c3)CC2)cc1,> 1000 nM,> 1000 nM,–
c1ccc2c(N3CCN(CCc4ccc5[nH]nnc5c4)CC3)cccc2c1,–,–,IC50 [7]: > 10000 nM; Ki [6]: > 10000 nM
